Measurements taken from patent US9974775B2, “Substituted imidazoles as N-type calcium channel blockers” (Janssen Pharmaceutica NV, priority 2013, dated 2018).
Where two headings read alike, the source gives them in different places. Each block holds one compound with its values, some of them ahead of it.

Target: human N-type Ca channel (Homo sapiens, UniProt Q00975)
Assay: Measurement of electrophysiological response (QPatch)
[1] = N Type IC50 Data Qpatch Pulse = 15, Pulse = 15, concentration range 0.3-10 μM
[2] = N Type IC50 Data Qpatch Pulse = 1, Pulse = 1, concentration range 0.3-10 μM
[3] = concentration range 0.01-0.3 μM

Sequence of human N-type Ca channel (Q00975 whole entry): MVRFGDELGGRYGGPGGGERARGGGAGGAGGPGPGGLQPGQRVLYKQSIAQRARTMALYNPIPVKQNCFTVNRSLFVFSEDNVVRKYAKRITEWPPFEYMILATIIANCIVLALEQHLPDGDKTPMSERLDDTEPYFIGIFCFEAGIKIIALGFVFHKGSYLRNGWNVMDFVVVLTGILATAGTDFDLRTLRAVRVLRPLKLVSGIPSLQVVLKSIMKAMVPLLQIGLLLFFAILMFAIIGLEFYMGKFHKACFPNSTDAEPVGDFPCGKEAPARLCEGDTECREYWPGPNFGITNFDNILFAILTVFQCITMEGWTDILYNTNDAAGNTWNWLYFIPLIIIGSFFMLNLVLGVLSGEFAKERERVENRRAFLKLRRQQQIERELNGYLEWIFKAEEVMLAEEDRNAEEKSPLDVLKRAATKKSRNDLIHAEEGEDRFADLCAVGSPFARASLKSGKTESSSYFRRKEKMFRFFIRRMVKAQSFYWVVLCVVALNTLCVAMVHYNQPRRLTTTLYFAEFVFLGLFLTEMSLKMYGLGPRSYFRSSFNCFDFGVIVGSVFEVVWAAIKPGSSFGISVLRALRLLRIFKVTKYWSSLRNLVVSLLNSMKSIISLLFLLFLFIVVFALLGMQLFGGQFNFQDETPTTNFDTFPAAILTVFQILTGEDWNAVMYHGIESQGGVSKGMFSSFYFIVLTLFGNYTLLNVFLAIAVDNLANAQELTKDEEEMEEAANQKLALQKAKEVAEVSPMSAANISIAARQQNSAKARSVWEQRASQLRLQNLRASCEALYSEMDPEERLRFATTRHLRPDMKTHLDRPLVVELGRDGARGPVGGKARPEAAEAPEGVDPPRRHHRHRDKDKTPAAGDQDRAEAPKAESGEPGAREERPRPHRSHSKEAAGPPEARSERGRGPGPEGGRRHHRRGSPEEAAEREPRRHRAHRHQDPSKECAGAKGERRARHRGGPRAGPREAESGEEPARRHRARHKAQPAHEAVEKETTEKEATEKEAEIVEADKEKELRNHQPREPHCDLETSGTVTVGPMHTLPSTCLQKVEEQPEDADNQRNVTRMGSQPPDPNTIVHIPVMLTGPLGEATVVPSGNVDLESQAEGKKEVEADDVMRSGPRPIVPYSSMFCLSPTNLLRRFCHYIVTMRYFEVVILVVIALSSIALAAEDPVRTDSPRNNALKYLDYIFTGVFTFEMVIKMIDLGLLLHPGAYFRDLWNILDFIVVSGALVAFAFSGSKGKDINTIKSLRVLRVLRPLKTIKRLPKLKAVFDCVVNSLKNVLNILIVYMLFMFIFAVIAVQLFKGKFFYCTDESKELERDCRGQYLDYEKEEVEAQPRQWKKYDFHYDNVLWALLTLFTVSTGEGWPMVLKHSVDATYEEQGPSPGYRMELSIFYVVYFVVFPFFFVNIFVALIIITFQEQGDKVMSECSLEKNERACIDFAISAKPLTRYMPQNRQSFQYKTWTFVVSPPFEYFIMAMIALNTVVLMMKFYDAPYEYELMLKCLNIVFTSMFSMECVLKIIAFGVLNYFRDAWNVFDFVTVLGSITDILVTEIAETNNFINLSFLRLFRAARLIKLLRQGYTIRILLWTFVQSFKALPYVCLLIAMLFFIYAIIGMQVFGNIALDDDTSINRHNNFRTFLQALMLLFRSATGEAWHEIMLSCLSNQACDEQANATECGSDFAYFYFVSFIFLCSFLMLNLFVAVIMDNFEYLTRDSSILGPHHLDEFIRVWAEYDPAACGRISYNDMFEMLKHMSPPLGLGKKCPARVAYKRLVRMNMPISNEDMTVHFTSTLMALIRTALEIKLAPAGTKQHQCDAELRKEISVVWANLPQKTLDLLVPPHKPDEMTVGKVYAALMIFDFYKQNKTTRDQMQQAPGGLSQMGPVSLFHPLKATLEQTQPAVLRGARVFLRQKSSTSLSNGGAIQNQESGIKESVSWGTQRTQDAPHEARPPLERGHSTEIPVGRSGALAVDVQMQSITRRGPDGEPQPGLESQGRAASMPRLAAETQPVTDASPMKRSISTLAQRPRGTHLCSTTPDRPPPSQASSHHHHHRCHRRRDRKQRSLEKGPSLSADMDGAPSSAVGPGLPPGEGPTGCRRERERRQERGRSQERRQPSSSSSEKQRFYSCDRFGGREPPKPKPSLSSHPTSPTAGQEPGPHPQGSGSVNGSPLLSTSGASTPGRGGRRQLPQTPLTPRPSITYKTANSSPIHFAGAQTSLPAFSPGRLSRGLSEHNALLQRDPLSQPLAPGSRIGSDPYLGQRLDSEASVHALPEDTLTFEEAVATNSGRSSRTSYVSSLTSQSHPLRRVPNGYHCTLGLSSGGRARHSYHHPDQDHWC
Sequence of human N-type Ca channel (P54284 whole entry partner): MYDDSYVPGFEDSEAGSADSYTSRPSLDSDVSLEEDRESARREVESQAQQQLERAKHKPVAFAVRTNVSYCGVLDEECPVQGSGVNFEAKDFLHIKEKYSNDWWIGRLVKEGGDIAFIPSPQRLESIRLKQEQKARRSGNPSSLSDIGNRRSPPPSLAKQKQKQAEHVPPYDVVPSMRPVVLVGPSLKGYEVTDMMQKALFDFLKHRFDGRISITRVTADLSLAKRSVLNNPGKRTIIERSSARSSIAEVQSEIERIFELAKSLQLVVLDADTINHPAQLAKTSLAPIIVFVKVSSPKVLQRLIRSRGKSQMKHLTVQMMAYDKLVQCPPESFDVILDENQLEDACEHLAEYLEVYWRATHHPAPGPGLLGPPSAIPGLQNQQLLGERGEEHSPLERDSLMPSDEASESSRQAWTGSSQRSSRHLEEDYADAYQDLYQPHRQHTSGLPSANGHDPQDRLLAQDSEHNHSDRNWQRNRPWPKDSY
Sequence of human N-type Ca channel (P54289 25-956 partner limits assumed): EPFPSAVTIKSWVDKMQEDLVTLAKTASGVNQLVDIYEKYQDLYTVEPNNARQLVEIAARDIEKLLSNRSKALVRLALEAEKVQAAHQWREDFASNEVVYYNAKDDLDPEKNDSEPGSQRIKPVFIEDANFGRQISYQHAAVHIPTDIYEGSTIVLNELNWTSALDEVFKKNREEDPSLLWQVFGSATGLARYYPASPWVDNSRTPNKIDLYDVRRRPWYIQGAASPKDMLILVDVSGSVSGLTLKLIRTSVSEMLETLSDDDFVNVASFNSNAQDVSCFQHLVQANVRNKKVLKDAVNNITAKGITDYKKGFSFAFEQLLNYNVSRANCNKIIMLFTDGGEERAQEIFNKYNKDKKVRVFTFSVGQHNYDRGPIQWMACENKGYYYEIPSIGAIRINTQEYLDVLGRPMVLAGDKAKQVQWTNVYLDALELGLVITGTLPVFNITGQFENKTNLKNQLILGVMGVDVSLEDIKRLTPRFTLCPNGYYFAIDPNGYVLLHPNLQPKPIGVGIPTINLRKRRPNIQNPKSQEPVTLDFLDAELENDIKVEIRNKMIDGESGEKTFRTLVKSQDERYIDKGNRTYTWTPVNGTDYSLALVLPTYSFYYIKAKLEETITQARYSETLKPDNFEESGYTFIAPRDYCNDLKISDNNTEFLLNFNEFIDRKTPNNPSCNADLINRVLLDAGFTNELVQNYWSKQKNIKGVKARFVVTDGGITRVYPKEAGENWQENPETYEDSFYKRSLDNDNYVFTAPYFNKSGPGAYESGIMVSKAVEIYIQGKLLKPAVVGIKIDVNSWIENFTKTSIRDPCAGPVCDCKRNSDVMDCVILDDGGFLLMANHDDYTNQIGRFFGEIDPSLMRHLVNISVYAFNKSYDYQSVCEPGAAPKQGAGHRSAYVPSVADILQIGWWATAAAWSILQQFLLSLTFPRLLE
Sequence of human N-type Ca channel (P54289 957-1103 partner limits assumed): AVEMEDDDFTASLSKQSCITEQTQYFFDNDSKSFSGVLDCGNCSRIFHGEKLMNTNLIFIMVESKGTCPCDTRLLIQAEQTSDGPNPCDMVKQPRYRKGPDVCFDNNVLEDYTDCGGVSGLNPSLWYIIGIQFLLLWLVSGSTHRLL
Procedure: The recombinant cell line described above was used in the measurement of electrophysiological properties with QPatch (Sophion). […] Prior to the experiment, the flasks were moved to 30° C. and incubated for 48-72 hrs. On the day of assaying, cells were detached and harvested. The cell pellet was re-suspended in SMF4HEK (HyClone)/25 mM HEPS at 2-5 million/mL and placed on the QStirrer of the QPatch for 30-60 min prior to the start of the assay. […] Microtiter-Plate/Reference Buffer contained 140 mM TEA-Cl, 10 mM BaCl2, 0.8 mM MgCl2, 10 mM HEPES pH˜7.4 adjusted with TEA-OH/HCl, and ˜300 mOsm. Cells were transferred to a QPatch 48 plate and gigaseal was formed. The plate was perfused with intracellular and extracellular buffer. […] In brief, cells were depolarized from resting potential of −80 mV to +20 mV and current was recorded. Data was plotted as percent inhibition vs concentration of the compound and IC50 values were generated using Graphpad Prism non-linear regression analysis.

IC50 [1]: ≥ 10 µM
Structure (SMILES): COc1ccccc1-c1nc(C2CC(C)(C)OC(C)(C)C2)cn1-c1ccc(C)nc1 [Cpd 5, 5-[2-(2-Methoxyphenyl)-4-(2,2,6,6-tetramethyltetrahydro-2H-pyran-4-yl)-1H-imidazol-1-yl]-2-methylpyridine]

IC50 [2]: ≥ 10 µM
Structure (SMILES): COc1ncccc1-c1nc(C2CC(C)(C)OC(C)(C)C2)cn1-c1ccc(F)c(Cl)c1 [Cpd 46, 3-[1-(3-Chloro-4-fluorophenyl)-4-(2,2,6,6-tetramethyltetrahydro-2H-pyran-4-yl)-1H-imidazol-2-yl]-2-methoxypyridine]

Qpatch Pulse = 1 (percent inhibition) (concentration range 0.01-1 μM): 48%
Structure (SMILES): CC1(C)CC(c2cn(-c3ccc(Cl)cc3)c(CC3CC3)n2)CC(C)(C)O1 [Cpd 55, 1-(4-Chlorophenyl)-2-(cyclopropylmethyl)-4-(2,2,6,6-tetramethyltetrahydro-2H-pyran-4-yl)-1H-imidazole]

N Type IC50 Data Qpatch Pulse = 1 (concentration range 0.01-1 μM): Poor fit
N Type IC50 Data Qpatch Pulse = 15 (concentration range 0.01-1 μM): Poor fit
Structure (SMILES): COc1ncccc1-c1nc(C2CC(C)(C)OC(C)(C)C2)cn1-c1ccc(C(F)(F)F)nc1 [Cpd 54, 2-Methoxy-3-{4-(2,2,6,6-tetramethyltetrahydro-2H-pyran-4-yl)-1-[6-(trifluoromethyl)pyridin-3-yl]-1H-imidazol-2-yl}pyridine]

N Type IC50 Data Qpatch Pulse = 1 [3]: poor fit
N Type IC50 Data Qpatch Pulse = 15 [3]: poor fit
Structure (SMILES): COc1nccnc1-c1nc(C2CC(C)(C)OC(C)(C)C2)cn1-c1ccc(C#N)cc1 [Cpd 87, 4-[2-(3-Methoxypyrazin-2-yl)-4-(2,2,6,6-tetramethyltetrahydro-2H-pyran-4-yl)-1H-imidazol-1-yl]benzonitrile]

N Type IC50 Data Qpatch Pulse = 1 [3]: poor fit
N Type IC50 Data Qpatch Pulse = 15 [3]: poor fit
Structure (SMILES): COc1ncccc1-c1nc(C2CC(C)(C)OC(C)(C)C2)cn1-c1ccc(C#N)c(C)c1 [Cpd 15, 4-[2-(2-Methoxypyridin-3-yl)-4-(2,2,6,6-tetramethyltetrahydro-2H-pyran-4-yl)-1H-imidazol-1-yl]-2-methylbenzonitrile]

IC50 [1]: ≥ 10 µM
Structure (SMILES): COc1ccccc1-c1nc(C2(O)CC(C)(C)OC(C)(C)C2)cn1-c1ccc(C#N)c(F)c1 [Cpd 118, 2-Fluoro-4-[4-(4-hydroxy-2,2,6,6-tetramethyltetrahydro-2H-pyran-4-yl)-2-(2-methoxyphenyl)-1H-imidazol-1-yl]benzonitrile]

N Type IC50 Data Qpatch Pulse = 15 (concentration range 0.01-1 μM): poor fit
Structure (SMILES): COc1ncccc1-c1nc(C2CC(C)(C)OC(C)(C)C2)cn1-c1cc(F)ccc1F [Cpd 71, 3-(1-(2,5-difluorophenyl)-4-(2,2,6,6-tetramethyltetrahydro-2H-pyran-4-yl)-1H-imidazol-2-yl)-2-methoxypyridine]

Qpatch Pulse = 1 (percent inhibition) (concentration range 0.01-1 μM): 46%
Qpatch Pulse = 15 (percent inhibition) (concentration range 0.01-1 μM): 37%
Structure (SMILES): COc1ncccc1-c1nc(C2CC(C)(C)OC(C)(C)C2)cn1Cc1cccc(Cl)c1 [Cpd 9, 3-(1-(3-chlorobenzyl)-4-(2,2,6,6-tetramethyltetrahydro-2H-pyran-4-yl)-1H-imidazol-2-yl)-2-methoxypyridine]

N Type IC50 Data Qpatch Pulse = 1 [3]: poor fit
N Type IC50 Data Qpatch Pulse = 15 [3]: poor fit
Structure (SMILES): CC1(C)CC(c2cn(-c3ccc(C(F)(F)F)nc3)c(CC3CC3)n2)CC(C)(C)O1 [Cpd 59, 5-[2-(Cyclopropylmethyl)-4-(2,2,6,6-tetramethyltetrahydro-2H-pyran-4-yl)-1H-imidazol-1-yl]-2-(trifluoromethyl)pyridine]

N Type IC50 Data Qpatch Pulse = 15 [3]: poor fit
Structure (SMILES): COc1nccnc1-c1nc(C2CC(C)(C)OC(C)(C)C2)cn1-c1ccc(C#N)c(F)c1 [Cpd 88, 2-fluoro-4-(2-(3-methoxypyrazin-2-yl)-4-(2,2,6,6-tetramethyltetrahydro-2H-pyran-4-yl)-1H-imidazol-1-yl)benzonitrile]

N Type IC50 Data Qpatch Pulse = 15 [3]: poor fit
Structure (SMILES): COc1ncccc1-c1nc(C2CC(C)(C)OC(C)(C)C2)cn1-c1cccc(F)c1F [Cpd 31, 3-(1-(2,3-difluorophenyl)-4-(2,2,6,6-tetramethyltetrahydro-2H-pyran-4-yl)-1H-imidazol-2-yl)-2-methoxypyridine]

Qpatch Pulse = 15 (percent inhibition) (concentration range 0.01-1 μM): 39%
Structure (SMILES): COc1ccccc1-c1nc(C2CC(C)(C)OC(C)(C)C2)cn1-c1ccc(C#N)c(C)c1 [Cpd 21, 4-[2-(2-Methoxyphenyl)-4-(2,2,6,6-tetramethyltetrahydro-2H-pyran-4-yl)-1H-imidazol-1-yl]-2-methylbenzonitrile]

IC50 [2]: ≥ 10 µM
Structure (SMILES): COc1ccccc1-c1nc(C2CC(C)(C)OC(C)(C)C2)cn1-c1ccc(F)cc1 [Cpd 4, 1-(4-Fluorophenyl)-2-(2-methoxyphenyl)-4-(2,2,6,6-tetramethyltetrahydro-2H-pyran-4-yl)-1H-imidazole]

Qpatch Pulse = 1 (percent inhibition) (concentration range 0.01-1 μM): 21%
Structure (SMILES): COc1ccc(-n2cc(C3CC(C)(C)OC(C)(C)C3)nc2-c2cccnc2OC)cc1F [Cpd 23, 3-[1-(3-Fluoro-4-methoxyphenyl)-4-(2,2,6,6-tetramethyltetrahydro-2H-pyran-4-yl)-1H-imidazol-2-yl]-2-methoxypyridine]

N Type IC50 Data Qpatch Pulse = 1 (concentration range 0.01-1 μM): poor fit
N Type IC50 Data Qpatch Pulse = 15 (concentration range 0.01-1 μM): poor fit
Structure (SMILES): COc1ncccc1-c1nc(C2CC(C)(C)OC(C)(C)C2)cn1-c1cc(F)cc(C#N)c1 [Cpd 73, 3-fluoro-5-(2-(2-methoxypyridin-3-yl)-4-(2,2,6,6-tetramethyltetrahydro-2H-pyran-4-yl)-1H-imidazol-1-yl)benzonitrile]

Structure (SMILES): COc1ccccc1-c1nc(C2CC(C)(C)OC(C)(C)C2)cn1S(=O)(=O)CC(C)C [Cpd 96, 2-(2-Methoxyphenyl)-1-[(2-methylpropyl)sulfonyl]-4-(2,2,6,6-tetramethyltetrahydro-2H-pyran-4-yl)-1H-imidazole]
IC50: ≥ 10 µM

N Type IC50 Data Qpatch Pulse = 1 [3]: poor fit
N Type IC50 Data Qpatch Pulse = 15 [3]: poor fit
Structure (SMILES): COc1ccccc1-c1nc(C2CC(C)(C)OC(C)(C)C2)c(C)n1-c1ccc(Cl)cc1 [Cpd 90, 1-(4-chlorophenyl)-2-(2-methoxyphenyl)-5-methyl-4-(2,2,6,6-tetramethyltetrahydro-2H-pyran-4-yl)-1H-imidazole]

Qpatch Pulse = 1 (percent inhibition) (concentration range 0.01-1 μM): 39%
Structure (SMILES): COc1ncccc1-c1nc(C2CC(C)(C)OC(C)(C)C2)cn1-c1ccc(Cl)c(C#N)c1 [Cpd 84, 2-Chloro-5-[2-(2-methoxypyridin-3-yl)-4-(2,2,6,6-tetramethyltetrahydro-2H-pyran-4-yl)-1H-imidazol-1-yl]benzonitrile]

N Type IC50 Data Qpatch Pulse = 15 [3]: poor fit
Structure (SMILES): CCOc1nccnc1-c1nc(C2CC(C)(C)OC(C)(C)C2)cn1-c1ccc(Cl)cc1 [Cpd 60, 2-[1-(4-Chlorophenyl)-4-(2,2,6,6-tetramethyltetrahydro-2H-pyran-4-yl)-1H-imidazol-2-yl]-3-ethoxypyrazine]

N Type IC50 Data Qpatch Pulse = 1 [3]: poor fit
Structure (SMILES): COc1ncccc1-c1nc(C2CC(C)(C)OC(C)(C)C2)cn1Cc1ccccc1Cl [Cpd 27, 3-[1-(2-Chlorobenzyl)-4-(2,2,6,6-tetramethyltetrahydro-2H-pyran-4-yl)-1H-imidazol-2-yl]-2-methoxypyridine]

Qpatch Pulse = 1 (percent inhibition) (concentration range 0.01-1 μM): 45%
Structure (SMILES): COc1ccc(-n2cc(C3CC(C)(C)OC(C)(C)C3)nc2-c2cccnc2OC)cc1C#N [Cpd 85, 2-Methoxy-5-[2-(2-methoxypyridin-3-yl)-4-(2,2,6,6-tetramethyltetrahydro-2H-pyran-4-yl)-1H-imidazol-1-yl]benzonitrile]

Qpatch Pulse = 1 (percent inhibition) (concentration range 0.01-1 μM): 38%
Structure (SMILES): COc1cc(-n2cc(C3CC(C)(C)OC(C)(C)C3)nc2-c2ccccc2OC)ccc1C#N [Cpd 34, 2-Methoxy-4-[2-(2-methoxyphenyl)-4-(2,2,6,6-tetramethyltetrahydro-2H-pyran-4-yl)-1H-imidazol-1-yl]benzonitrile]

Structure (SMILES): COc1ccccc1-c1nc(C2CC(C)(C)OC(C)(C)C2)cn1-c1c(F)cc(C#N)cc1F [Cpd 83, 3,5-difluoro-4-(2-(2-methoxyphenyl)-4-(2,2,6,6-tetramethyltetrahydro-2H-pyran-4-yl)-1H-imidazol-1-yl)benzonitrile]
N Type IC50 Data Qpatch Pulse = 1 [3]: poor fit
N Type IC50 Data Qpatch Pulse = 15 [3]: poor fit

N Type IC50 Data Qpatch Pulse = 1 [3]: poor fit
N Type IC50 Data Qpatch Pulse = 15 [3]: poor fit
Structure (SMILES): COc1ncccc1-c1nc(C2CC(C)(C)OC(C)(C)C2)cn1-c1ccc(F)c(F)c1F [Cpd 16, 2-methoxy-3-(4-(2,2,6,6-tetramethyltetrahydro-2H-pyran-4-yl)-1-(2,3,4-trifluorophenyl)-1H-imidazol-2-yl)pyridine]

N Type IC50 Data Qpatch Pulse = 1 (concentration range 0.01-1 μM): poor fit
N Type IC50 Data Qpatch Pulse = 15 (concentration range 0.01-1 μM): poor fit
Structure (SMILES): COc1ncccc1-c1nc(C2CC(C)(C)OC(C)(C)C2)cn1-c1cc(F)cc(F)c1 [Cpd 72, 3-(1-(3,5-difluorophenyl)-4-(2,2,6,6-tetramethyltetrahydro-2H-pyran-4-yl)-1H-imidazol-2-yl)-2-methoxypyridine]

Structure (SMILES): COc1ncccc1-c1nc(C2CC(C)(C)OC(C)(C)C2)cn1-c1ccc(C#N)c(C(F)(F)F)c1 [Cpd 29, 4-(2-(2-methoxypyridin-3-yl)-4-(2,2,6,6-tetramethyltetrahydro-2H-pyran-4-yl)-1H-imidazol-1-yl)-2-(trifluoromethyl)benzonitrile]
N Type IC50 Data Qpatch Pulse = 1 [3]: poor fit
N Type IC50 Data Qpatch Pulse = 15 [3]: poor fit

Qpatch Pulse = 1 (percent inhibition) (concentration range 0.01-1 μM): 58%
Structure (SMILES): COc1ncccc1-c1nc(C2CC(C)(C)OC(C)(C)C2)cn1-c1ccc(C#N)c(Cl)c1 [Cpd 78, 2-Chloro-4-[2-(2-methoxypyridin-3-yl)-4-(2,2,6,6-tetramethyltetrahydro-2H-pyran-4-yl)-1H-imidazol-1-yl]benzonitrile]

Qpatch Pulse = 1 (percent inhibition) (concentration range 0.01-1 μM): 28%
Structure (SMILES): COc1ncncc1-c1nc(C2CC(C)(C)OC(C)(C)C2)cn1-c1ccc(C#N)cc1 [Cpd 86, 4-[2-(4-Methoxypyrimidin-5-yl)-4-(2,2,6,6-tetramethyltetrahydro-2H-pyran-4-yl)-1H-imidazol-1-yl]benzonitrile]

Qpatch Pulse = 1 (percent inhibition) (concentration range 0.01-1 μM): 29%
Structure (SMILES): COc1cc(-n2cc(C3CC(C)(C)OC(C)(C)C3)nc2-c2cccnc2OC)ccc1F [Cpd 24, 3-[1-(4-Fluoro-3-methoxyphenyl)-4-(2,2,6,6-tetramethyltetrahydro-2H-pyran-4-yl)-1H-imidazol-2-yl]-2-methoxypyridine]
